Assay in all cases: biochemical
The target in one assay is HIPK2 (Homo sapiens, UniProt Q9H2X6). More on the design: Thermal shift (DSF, SYPRO Orange) Tm shift of recombinant kinase domains at 10 uM compound.
Another assay deals with PIM1 (Homo sapiens, UniProt P11309). More on the design: Thermal shift (DSF, SYPRO Orange) Tm shift of recombinant kinase domains at 10 uM compound.
The target in the next assay is T1, CSNK2a1 (Homo sapiens, UniProt P68400).
T1 construct: kinase domain
Details: Thermal shift (DSF, SYPRO Orange) Tm shift of recombinant kinase domains at 10 uM compound.

The next assay deals with CDK2 (Homo sapiens, UniProt P24941). More on the design: Thermal shift (DSF, SYPRO Orange) Tm shift of recombinant kinase domains at 10 uM compound.
The target in a further assay is T2, ATK3 (Homo sapiens, UniProt Q9Y243).
T2 construct: gene AKT3; kinase domain
Details: Thermal shift assay (SYPRO Orange DSF) of recombinant kinase domains; Tm shift. The method, then:
(§1) S23 Thermal stability kinase selectivity. The assay was performed as previously described. 9,10 Briefly, recombinant protein kinase domains at a concentration of 2 μM were mixed with 10 μM compound in a buffer containing 20 mM HEPES, pH 7.5, and 500 mM NaCl. SYPRO Orange (5000×, Invitrogen) was added as a fluorescence probe (1 µl per mL). Subsequently, temperature-dependent protein unfolding profiles were measured using the QuantStudio™ 5 realtime PCR machine (Thermo Fisher). Excitation and emission filters were set to 465 nm and 590 nm, respectively. The temperature was raised with a step rate of 3°C per minute. Data points were analysed with the internal software (Thermal Shift SoftwareTM Version 1.4, Thermo Fisher) using the Boltzmann equation to determine the inflection point of the transition curve.

In the next assay the target is T3, TIF1 (Homo sapiens, UniProt O15164).
T3 construct: gene TRIM24
T3 sequence (O15164 1-1050): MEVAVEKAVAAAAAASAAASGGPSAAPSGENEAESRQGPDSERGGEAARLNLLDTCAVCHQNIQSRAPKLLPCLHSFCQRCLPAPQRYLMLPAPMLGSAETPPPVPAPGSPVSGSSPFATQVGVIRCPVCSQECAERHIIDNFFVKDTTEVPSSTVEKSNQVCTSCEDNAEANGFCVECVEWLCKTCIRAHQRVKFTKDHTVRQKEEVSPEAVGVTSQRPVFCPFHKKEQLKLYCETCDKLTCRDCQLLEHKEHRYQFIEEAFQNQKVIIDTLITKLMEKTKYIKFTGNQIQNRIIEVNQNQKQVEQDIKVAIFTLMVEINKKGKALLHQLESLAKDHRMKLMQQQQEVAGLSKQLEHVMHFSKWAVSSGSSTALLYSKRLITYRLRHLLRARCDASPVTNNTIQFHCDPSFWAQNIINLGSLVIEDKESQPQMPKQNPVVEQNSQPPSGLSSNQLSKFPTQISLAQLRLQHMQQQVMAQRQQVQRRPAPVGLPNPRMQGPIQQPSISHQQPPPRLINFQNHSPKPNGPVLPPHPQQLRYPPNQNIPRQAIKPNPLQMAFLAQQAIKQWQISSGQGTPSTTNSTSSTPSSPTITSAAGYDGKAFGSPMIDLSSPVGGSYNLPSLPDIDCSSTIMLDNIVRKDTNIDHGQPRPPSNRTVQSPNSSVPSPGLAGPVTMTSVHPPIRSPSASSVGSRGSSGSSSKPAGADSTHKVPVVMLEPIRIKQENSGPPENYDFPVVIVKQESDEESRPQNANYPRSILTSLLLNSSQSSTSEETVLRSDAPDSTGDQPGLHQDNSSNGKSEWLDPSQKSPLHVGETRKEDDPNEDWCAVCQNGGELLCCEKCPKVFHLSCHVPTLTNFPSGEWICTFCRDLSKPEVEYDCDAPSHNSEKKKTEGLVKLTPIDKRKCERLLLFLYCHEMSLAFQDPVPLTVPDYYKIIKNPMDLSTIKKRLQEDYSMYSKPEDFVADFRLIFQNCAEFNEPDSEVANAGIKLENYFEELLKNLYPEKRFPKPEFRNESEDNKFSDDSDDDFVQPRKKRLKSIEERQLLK
Details: Thermal shift assay (SYPRO Orange DSF) of recombinant kinase domains; Tm shift. The method, then:
as §1

Like-named read-outs stand apart in the source and are kept apart here.

T2 sequence (Q9Y243 whole entry, the tested form may be a part): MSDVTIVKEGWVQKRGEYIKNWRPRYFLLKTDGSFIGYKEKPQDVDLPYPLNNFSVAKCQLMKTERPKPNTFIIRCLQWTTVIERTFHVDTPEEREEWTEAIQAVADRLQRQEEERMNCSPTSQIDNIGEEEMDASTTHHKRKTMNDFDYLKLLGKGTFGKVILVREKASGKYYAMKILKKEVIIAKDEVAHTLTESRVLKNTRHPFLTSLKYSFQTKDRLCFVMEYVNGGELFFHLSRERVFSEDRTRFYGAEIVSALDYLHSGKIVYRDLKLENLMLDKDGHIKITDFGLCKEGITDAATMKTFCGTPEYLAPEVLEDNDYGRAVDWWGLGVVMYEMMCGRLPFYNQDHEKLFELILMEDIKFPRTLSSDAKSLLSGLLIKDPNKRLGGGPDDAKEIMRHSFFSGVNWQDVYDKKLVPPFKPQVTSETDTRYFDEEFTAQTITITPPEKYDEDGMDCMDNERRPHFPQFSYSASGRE
HIPK2, sequence (Q9H2X6 whole entry, the tested form may be a part): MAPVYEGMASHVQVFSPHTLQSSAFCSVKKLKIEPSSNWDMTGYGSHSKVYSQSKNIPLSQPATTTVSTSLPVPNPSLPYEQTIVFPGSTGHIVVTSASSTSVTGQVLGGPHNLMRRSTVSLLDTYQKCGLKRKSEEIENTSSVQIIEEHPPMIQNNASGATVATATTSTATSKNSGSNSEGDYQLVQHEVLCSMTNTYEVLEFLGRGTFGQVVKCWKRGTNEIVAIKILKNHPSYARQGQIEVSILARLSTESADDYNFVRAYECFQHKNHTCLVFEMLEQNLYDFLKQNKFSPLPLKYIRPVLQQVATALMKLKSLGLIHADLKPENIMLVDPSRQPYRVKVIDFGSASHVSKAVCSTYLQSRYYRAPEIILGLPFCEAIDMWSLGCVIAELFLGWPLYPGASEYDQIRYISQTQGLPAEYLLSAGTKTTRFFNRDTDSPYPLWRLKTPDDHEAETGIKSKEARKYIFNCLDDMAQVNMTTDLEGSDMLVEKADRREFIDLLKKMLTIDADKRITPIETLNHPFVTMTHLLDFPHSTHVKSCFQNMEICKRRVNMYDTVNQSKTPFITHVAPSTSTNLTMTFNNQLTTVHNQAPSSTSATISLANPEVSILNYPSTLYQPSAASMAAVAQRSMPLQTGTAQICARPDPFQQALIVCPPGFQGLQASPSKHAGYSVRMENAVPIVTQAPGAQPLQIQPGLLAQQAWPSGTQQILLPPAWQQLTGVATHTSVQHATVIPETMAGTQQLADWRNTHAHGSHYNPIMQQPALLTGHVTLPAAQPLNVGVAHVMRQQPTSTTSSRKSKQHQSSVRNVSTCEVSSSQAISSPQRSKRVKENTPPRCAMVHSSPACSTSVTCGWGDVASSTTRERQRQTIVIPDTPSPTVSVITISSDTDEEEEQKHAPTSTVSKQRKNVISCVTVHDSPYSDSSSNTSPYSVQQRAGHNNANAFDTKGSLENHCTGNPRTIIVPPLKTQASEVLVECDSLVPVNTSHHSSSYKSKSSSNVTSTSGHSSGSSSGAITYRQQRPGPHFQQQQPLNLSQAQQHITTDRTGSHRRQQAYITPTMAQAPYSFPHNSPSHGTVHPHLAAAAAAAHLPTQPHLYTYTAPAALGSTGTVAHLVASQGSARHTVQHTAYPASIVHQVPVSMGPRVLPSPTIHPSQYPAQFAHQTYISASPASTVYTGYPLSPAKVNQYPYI
PIM1, sequence (P11309 whole entry, the tested form may be a part): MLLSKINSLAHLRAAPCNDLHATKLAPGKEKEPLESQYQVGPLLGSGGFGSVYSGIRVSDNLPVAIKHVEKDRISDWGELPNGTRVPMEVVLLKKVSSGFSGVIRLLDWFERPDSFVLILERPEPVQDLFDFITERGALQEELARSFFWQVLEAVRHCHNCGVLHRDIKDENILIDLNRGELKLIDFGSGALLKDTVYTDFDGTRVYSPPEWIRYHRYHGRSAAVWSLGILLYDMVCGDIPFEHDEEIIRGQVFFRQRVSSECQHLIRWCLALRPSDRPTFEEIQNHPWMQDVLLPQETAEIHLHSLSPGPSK
T1 sequence (P68400 whole entry, the tested form may be a part): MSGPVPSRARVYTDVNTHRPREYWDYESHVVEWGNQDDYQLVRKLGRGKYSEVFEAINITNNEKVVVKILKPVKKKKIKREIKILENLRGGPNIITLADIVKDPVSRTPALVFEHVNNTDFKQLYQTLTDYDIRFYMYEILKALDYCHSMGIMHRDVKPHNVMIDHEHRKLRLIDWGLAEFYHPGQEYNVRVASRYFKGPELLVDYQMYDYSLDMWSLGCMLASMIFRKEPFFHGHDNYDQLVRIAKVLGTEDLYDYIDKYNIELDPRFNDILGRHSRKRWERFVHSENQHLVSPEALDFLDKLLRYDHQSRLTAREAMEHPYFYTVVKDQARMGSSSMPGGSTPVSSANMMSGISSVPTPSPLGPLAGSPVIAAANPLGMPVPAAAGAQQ

Turning to `CC(C)Oc1ccc2ccn(-c3cncc(-c4ccc(C(=O)O)cc4)n3)c2c1` [6c], the ΔTm at 10 µM at HIPK2 (read-out: 6c) is 9 °C; at PIM1 (read-out: 6c) it was 10 °C; at CSNK2a1 (read-out: 6c), 15 °C; on CDK2 (read-out: 6c), 5 °C; on ATK3 (read-out: 6c), -1 °C; at TIF1 (read-out: 6c) it was -2 °C.

Consider `COc1ccc(OC(C)C)cc1Nc1cncc(-c2ccc(C(=O)O)cc2)n1` [7c], for which the ΔTm at 10 µM on HIPK2 (read-out: 7c) is 7 °C; at PIM1 (read-out: 7c), 9 °C; at CSNK2a1 (read-out: 7c), 15 °C; on CDK2 (read-out: 7c), 1 °C; on ATK3 (read-out: 7c), -1 °C; at TIF1 (read-out: 7c), -1 °C.

Take `CC(C)Nc1ccc2cnn(-c3cncc(-c4ccc(C(=O)O)cc4)n3)c2c1` [compound 2, 2]: the ΔTm at 10 µM on ATK3 (read-out: 2) worked out at 1 °C; on TIF1 (read-out: 2) it was 0 °C.

The values are drawn from paper doi:10.1101/2023.12.04.569845, “Identification of 4-(6-((2-methoxyphenyl)amino)pyrazin-2-yl)benzoic acids as CSNK2A inhibitors with antiviral activity and improved selectivity over PIM3” (bioRxiv, 2023).
